Test [1] is described as follows: Cytotoxicity against human HL60 cells. Format: functional, cell-based. To be noted: HL-60.
The next test concerns A549. Description: Cytotoxicity against human A549 cells. In kind it is functional, cell-based.
Test [2] in a line: Cytotoxicity against human HCT116 cells. Format: functional, cell-based. The conditions noted are these: HCT-116.
A short description of test [3]: Cytotoxicity against human MIAPaCa2 cells. In kind it is functional, cell-based. To be noted: MIA PaCa-2.
The test system of another test is MCF7. In words: Cytotoxicity against human MCF7 cells. Format: functional, cell-based.
The nature of test [4]: Cytotoxicity against human FR2 cells. Format: cell-based.

Bounds are passed on as bounds.

We go through 17 compounds from ChEMBL document CHEMBL3351412, “Design, synthesis and biological evaluation of β-boswellic acid based HDAC inhibitors as inducers of cancer cell death” (Bioorg Med Chem Lett, 2014).

One may read the IC50 as the point on the concentration scale where inhibition reaches its midpoint. On to `COC(=O)CCCCC(=O)N[C@]1(C)[C@@H]2CC[C@]3(C)[C@H](CC=C4[C@@H]5[C@@H](C)[C@H](C)CC[C@]5(C)CC[C@]43C)[C@@]2(C)CC[C@H]1OC(C)=O`, for which the IC50 in test [1] is more than 20 µM; with A549, more than 20 µM; in test [2], more than 20 µM; in test [3], more than 20 µM; in the test with MCF7 it was 13.8 µM; in test [4], more than 20 µM.

Regarding `CC(=O)O[C@@H]1CC[C@]2(C)[C@H]3C(=O)C=C4[C@@H]5[C@@H](C)[C@H](C)CC[C@]5(C)CC[C@@]4(C)[C@]3(C)CC[C@H]2[C@@]1(C)N`, the IC50 was 6.1 µM in test [1]; 6 µM in the test on A549; 15.3 µM in test [2]; 15.1 µM in test [3]; 14 µM in the test with MCF7; 7.1 µM in test [4].

In the case of `COC(=O)CCCCCCCC(=O)N[C@]1(C)[C@@H]2CC[C@]3(C)[C@H](CC=C4[C@@H]5[C@@H](C)[C@H](C)CC[C@]5(C)CC[C@]43C)[C@@]2(C)CC[C@H]1OC(C)=O`, the concentration for half-maximal inhibition (IC50) in test [1] is more than 20 µM; in the test on A549, more than 20 µM; in test [2], more than 20 µM; in test [3] it was more than 20 µM; in the test on MCF7 it was 17 µM; in test [4], more than 20 µM.

As for `C[C@H]1[C@H](C)CC[C@]2(C)CC[C@]3(C)C(=CC(=O)[C@@H]4[C@@]5(C)CC[C@@H](O)[C@](C)(NC(=O)CCCCC(=O)O)[C@@H]5CC[C@]43C)[C@H]12`, the IC50 in test [1] is more than 20 µM; in the test with A549, 19.1 µM; in test [2] it was more than 20 µM; in test [3], 14.1 µM; with MCF7, 18 µM; in test [4], more than 20 µM.

On to `C[C@H]1[C@H](C)CC[C@]2(C)CC[C@]3(C)C(=CC(=O)[C@@H]4[C@@]5(C)CC[C@@H](O)[C@](C)(NC(=O)CCCCCCC(=O)O)[C@@H]5CC[C@]43C)[C@H]12`, for which the IC50 in test [1] was more than 20 µM; in the test on A549, 2.9 µM; in test [2] it was more than 20 µM; in test [3], 8.6 µM; in the test on MCF7, more than 20 µM; in test [4] it was more than 20 µM.

For `C[C@H]1[C@H](C)CC[C@]2(C)CC[C@]3(C)C(=CC[C@@H]4[C@@]5(C)CC[C@@H](O)[C@](C)(NC(=O)CCCC(=O)O)[C@@H]5CC[C@]43C)[C@H]12`, the IC50 in test [1] was 13.4 µM; with A549, more than 20 µM; in test [2], more than 20 µM; in test [3], 11 µM; in the test on MCF7, 14.3 µM; in test [4], more than 20 µM.

Take `C[C@H]1[C@H](C)CC[C@]2(C)CC[C@]3(C)C(=CC(=O)[C@@H]4[C@@]5(C)CC[C@@H](O)[C@](C)(NC(=O)CCCC(=O)O)[C@@H]5CC[C@]43C)[C@H]12`: the IC50 in test [1] is more than 20 µM; in the test on A549, 6.6 µM; in test [2], 7.1 µM; in test [3] it was 6 µM; in the test on MCF7, 11.1 µM; in test [4], more than 20 µM.

For the compound `C[C@H]1[C@H](C)CC[C@]2(C)CC[C@]3(C)C(=CC[C@@H]4[C@@]5(C)CC[C@@H](O)[C@](C)(NC(=O)CCCCCCC(=O)O)[C@@H]5CC[C@]43C)[C@H]12`, the IC50 (in test [1]; in the test on A549; in test [2]; in test [3]; in the test with MCF7; in test [4]) was more than 20 µM throughout.

For `COC(=O)CCCCC(=O)N[C@]1(C)[C@@H]2CC[C@]3(C)[C@H](C(=O)C=C4[C@@H]5[C@@H](C)[C@H](C)CC[C@]5(C)CC[C@]43C)[C@@]2(C)CC[C@H]1OC(C)=O`, the IC50 in test [1] was more than 20 µM; in the test on A549, 15.1 µM; in test [2] it was 15.1 µM; in test [3], 15.1 µM; with MCF7 it was 15.1 µM; in test [4], more than 20 µM.

Turning to `C[C@H]1[C@H](C)CC[C@]2(C)CC[C@]3(C)C(=CC[C@@H]4[C@@]5(C)CC[C@@H](O)[C@](C)(NC(=O)CCCCCCCC(=O)O)[C@@H]5CC[C@]43C)[C@H]12`, the IC50 in test [1] is more than 20 µM; with A549, more than 20 µM; in test [2] it was more than 20 µM; in test [3], 15.9 µM; in the test with MCF7 it was 16.5 µM; in test [4], more than 20 µM.

`COC(=O)CCCC(=O)N[C@@]1(C)[C@H](OC(C)=O)CC[C@]2(C)C3CC=C4[C@@H]5[C@@H](C)[C@H](C)CC[C@]5(C)CC[C@@]4(C)[C@]3(C)CC[C@@H]12` (single isomer, unassigned): the IC50 in test [1] is 17.1 µM; in the test on A549 it was more than 20 µM; in test [2] it was 19 µM; in test [3], 11.4 µM; with MCF7 it was 8.7 µM; in test [4], more than 20 µM.

For `COC(=O)CCCC(=O)N[C@]1(C)[C@@H]2CC[C@]3(C)[C@H](C(=O)C=C4[C@@H]5[C@@H](C)[C@H](C)CC[C@]5(C)CC[C@]43C)[C@@]2(C)CC[C@H]1OC(C)=O`, the IC50 is 17.6 µM in test [1]; 7.4 µM with A549; more than 20 µM in test [2]; more than 20 µM in test [3]; more than 20 µM with MCF7; more than 20 µM in test [4].

On to `COC(=O)CCCCCCCC(=O)N[C@]1(C)[C@@H]2CC[C@]3(C)[C@H](C(=O)C=C4[C@@H]5[C@@H](C)[C@H](C)CC[C@]5(C)CC[C@]43C)[C@@]2(C)CC[C@H]1OC(C)=O`, for which the IC50 in test [1] is 10 µM; in the test with A549, 10 µM; in test [2], 18 µM; in test [3], 6.1 µM; with MCF7, 2 µM; in test [4] it was 17.2 µM.

As for `CC(=O)O[C@@H]1CC[C@]2(C)[C@H]3CC=C4[C@@H]5[C@@H](C)[C@H](C)CC[C@]5(C)CC[C@@]4(C)[C@]3(C)CC[C@H]2[C@@]1(C)N`, the IC50 was determined as 10 µM in test [1]; 13.2 µM with A549; 8.7 µM in test [2]; 7.2 µM in test [3]; 6.9 µM in the test with MCF7; 13.9 µM in test [4].

`COC(=O)CCCCCCC(=O)N[C@]1(C)[C@@H]2CC[C@]3(C)[C@H](CC=C4[C@@H]5[C@@H](C)[C@H](C)CC[C@]5(C)CC[C@]43C)[C@@]2(C)CC[C@H]1OC(C)=O`: the IC50 (in test [1]; in the test with A549; in test [2]; in test [3]; with MCF7; in test [4]) was more than 20 µM throughout.

For `C[C@H]1[C@H](C)CC[C@]2(C)CC[C@]3(C)C(=CC(=O)[C@@H]4[C@@]5(C)CC[C@@H](O)[C@](C)(NC(=O)CCCCCCCC(=O)O)[C@@H]5CC[C@]43C)[C@H]12`, the IC50 in test [1] is 7.5 µM; in the test on A549, more than 20 µM; in test [2], more than 20 µM; in test [3], more than 20 µM; in the test on MCF7 it was 15.1 µM; in test [4], 16.6 µM.

Consider `COC(=O)CCCCCCC(=O)N[C@]1(C)[C@@H]2CC[C@]3(C)[C@H](C(=O)C=C4[C@@H]5[C@@H](C)[C@H](C)CC[C@]5(C)CC[C@]43C)[C@@]2(C)CC[C@H]1OC(C)=O`, for which the IC50 in test [1] is more than 20 µM; in the test with A549, 2 µM; in test [2], 15.7 µM; in test [3], 8 µM; with MCF7 it was less than 0.25 µM; in test [4], more than 20 µM.
